Test results as given in patent US12329827B2, “Devices, compositions and related methods for accelerating and enhancing bone repair” (THE REGENTS OF THE UNIVERSITY OF MICHIGAN, priority 2015, dated 2025).

What was measured:
[1] = tested on: murine mandibular DO model; assay: Mandibular distraction osteogenesis model, DFO injections into the regenerate gap (Example I); format: in vivo, Sprague-Dawley rats
Text: The effectiveness of DFO in enhancing regenerate vascularity at a full consolidation period (28 days) in a murine mandibular DO model was established. To investigate whether this augmentation in vascularity would function to accelerate consolidation without compromising regenerate quality or strength, consolidation periods prior to μCT imaging and biomechanical testing (BMT) were progressively shortened. Three time points (14 d, 21 d and 28 d) were selected and six groups of Sprague-Dawley rats (n=60) were equally divided into control (C) and experimental (E) groups for each time period. Each group underwent external fixator placement, mandibular osteotomy, and a 5.1 mm distraction. During distraction, the experimental groups were treated with DFO injections into the regenerate gap. After consolidation, mandibles were imaged and tension tested to failure. ANOVA was conducted between groups, and p<0.05 was considered statistically significant. […] The benefit of treatment was further substantiated by a striking 100% increase in the number of clinically appreciated bony unions at this early time-period (C:4/10 vs. E:8/10, FIG. 2) (see, e.g., Donneys, Alexis, et al., Bone 55.2 (2013): 384-390).

[2] = tested on: irradiated mandible fracture; assay: Fracture healing in the irradiated mandible, DFO injected into callus site (Example II); format: in vivo, rats
Text: The effects of radiation on bone formation and healing are mediated through the mechanisms of vascular damage, direct cellular depletion and diminished function of osteocytes. Over time, this accumulated damage predisposes patients to the debilitating problem of late pathologic fractures and non-unions. Here, the use of DFO was employed to bolster the vascular response during bone healing in this setting. It was posited that the untoward effects of radiotherapy on vascular density and osteocyte count and ultimately the mineralization and biomechanical strength of our bone would be improved with the addition of DFO. 12 rats received fractionated radiotherapy to left hemi-mandibles. After recovery, fracture repair ensued with external fixator placement and mandibular osteotomy. DFO was injected into the callus site every other day from post-operative days 4-12. A 40-day healing period was allowed prior to vessel perfusion, PCT, BMT, and histologic processing. Mandibles were dissected and gross union was assessed. Union was defined as bony bridging and the absence of motion across the fracture site. Outcome data was analyzed with ANOVA, and p≤0.05 was statistically significant. The DFO group was compared with two other groups: fracture-Fx and radiated fracture-XFx (n=12, 12).

[3] = tested on: human umbilical vein endothelial (HUVEC) cells exposed to radiation; assay: Tubule formation of irradiated HUVEC cells in Matrigel (Example III); format: cell-based
Description: The effect of DFO on endothelial cells exposed to radiation in vitro was investigated. […] Four groups of human umbilical vein endothelial (HUVEC) cells (control, radiated, radiated+low dose DFO, or radiated+high dose DFO) were incubated in Matrigel and video recorded in real-time over 12 hours. DFO groups received either 25 or 50 μM doses at the time of incubation. Tubule formation was photographed at 100× magnification every four hours. Tubule numbers between groups were compared using ANOVA with p≤0.05 considered statistically significant. A severe diminution in endothelial tubule formation after radiotherapy was observed. Specifically, tubule formation was diminished 30%, 34%, and 27% respectively, compared to control values (p=0.01, at 4, 8, and 12 hours). The effects of radiation were strikingly remediated by treatment with high-dose DFO. […] These findings were clearly observed with real-time recording. […] This evidence supports the contention that DFO strongly remediates the effects of radiation on endothelial tubule formation (see, e.g., Donneys, Alexis, et al., Plastic and Reconstructive Surgery 131.5S (2013): 141).

[4] = tested on: irradiated mandibular fractures; assay: Irradiated mandibular fracture, implanted nano-DFO vs standard DFO (Example V); format: in vivo, Rats; settings: radiated fracture, 40-day healing
Description: Rats (n=44) were divided into 4 groups. Fracture, radiated fracture, radiated fracture with standard DFO and radiated fracture with nano-DFO. Radiated groups received radiotherapy 2 weeks prior to mandibular osteotomy. The nano-DFO group received implantation of the drug at the time of surgery. Following a 40-day healing period, mandibles were assessed for bony-union, imaged with μCT, and mechanically tested to failure. ANOVA was used for comparison and (p<0.05).

CC(=O)N(O)CCCCCNC(=O)CCC(=O)N(O)CCCCCNC(=O)CCC(=O)N(O)CCCCCN [DFO, N′-{5-[Acetyl(hydroxy)amino]pentyl}-N-[5-({4-[(5-aminopentyl)(hydroxy)amino]-4-oxobutanoyl}amino)pentyl]-N-hydroxysuccinamide]
Bone Mineral Density (BMD) vs non-treated controls ([1]; 14 days of consolidation): significant increases
Bone Volume Fraction (BVF) vs non-treated controls ([1]; 14 days of consolidation): significant increases
Ultimate Load (UL) vs non-treated controls ([1]; 14 days of consolidation): significant increases
increase in the number of bony unions vs non-treated controls ([1]; 14 days of consolidation): 100%
number of clinically appreciated bony unions ([1]; 14 days of consolidation, unions/animals): 8/10
BVF, BMD, Yield and UL at 14 days vs fully consolidated 28 d control group ([1]; 14 days with treatment): comparable
bony union rate ([1]; 28 days): 100%
BMT and mineralization metrics vs Fx group ([2]; 40-day healing): no difference
BMT and mineralization metrics vs XFx group ([2]; 40-day healing): significant increase
Vessel Number, Thickness and Separation ([2]; 40-day healing): significant restorative effects
increase in bony unions vs XFx ([2]; 40-day healing): 42%
Vessel Volume vs XFx ([2]; 40-day healing, p=0.029): significant restoration to control level
bony union ([2]; 40-day healing, Fx 100%, XFx 25%): 67%
empty lacunae vs XFx ([2]; histomorphometry, p=0.000): decrease
osteocyte count vs XFx ([2]; histomorphometry, p=0.000): significant restoration to control level
tubule formation vs radiated cells ([3]; high dose DFO (50 μM), 4, 8 and 12 hours, p=0.02): significantly increased
tubule formation vs normal (control) levels ([3]; high dose DFO (50 μM), each time point): reached or exceeded normal levels
time of incubation to organization of cultures ([3]; high-dose DFO (50 μM), real-time recording): ≤ 2 h
Bony Unions [4]: 67%
radiation-induced decreases in all metrics [4]: remediated
